Laboratory results taken from paper PMC7115513 (European Journal of Medicinal Chemistry, 2012).
Where two headings read alike, the source gives them in different places. Marks after values point to notes of the source that are not given here.

Legend:
P. falciparum CQ^S (3D7) = format: cell-based, Plasmodium falciparum; conditions: read-out: IC50 CQ^S (3D7); CQ sensitive strain; primary screening
P. falciparum CQ^R (K1) = test: microbe, parasite or virus in culture; format: cell-based, Plasmodium falciparum
[1] = system: Madin Darby canine kidney (MDCK) cells
[2] = pH 5.6; cited from earlier work
[3] = pH 5.8; cited from earlier work
[4] = format: binding; conditions: heme 2.4 μM, DMSO:H2O/4:6, v/v; increasing compound concentration
GC rich CT DNA = format: binding, calf

Compound	Cytotoxicity MIC ([1]; dog)	further results
5-Ethoxycarbonyl-6-methyl-4-phenyl-2-[5-(7-chloroquinolin-4-ylamino)-2-methylpentylamino] pyrimidine [Compound 10k]		IC50 (P. falciparum CQ^S (3D7)): 287 nM; IC50 (P. falciparum CQ^R (K1); read-out: IC50 CQ^R (K1)): 860 nM
NC12CC3CC(CC(C3)C1)C2 [Amantadine, reference compound]	h 50% cytotoxic concentration, as determined by measuring the cell viability with the colorimetric formazan- based MTS assay (reference drugs used: Oseltamivir carboxylate CC50/MIC >100, Ribavirin CC50/MIC >100, Amantadine CC50/MIC >200 and Rimantadine CC50/MIC >200). μM	
CCN(CC)CCCC(C)Nc1ccnc2cc(Cl)ccc12 (stereo not drawn) [Compound 2, chloroquine, reference compound]		IC50 (P. falciparum CQ^R (K1); Plasmodium falciparum, K1, read-out: IC50 CQ^R (K1)): 202 nM; Monomeric heme log K [2]: 4.82; μ-oxo heme log K [3]: 5.6 ^c
CCOC(=O)c1c(C)nc(NCCNc2ccnc3cc(Cl)ccc23)nc1-c1ccccc1 [Compound 10a, 5-Ethoxycarbonyl-6-methyl-4-phenyl-2-[(7-chloroquinolin-4-ylamino)ethylamino] pyrimidine]	0.8 µM	
CCOC(=O)c1c(C)nc(NCCCNc2ccnc3cc(Cl)ccc23)nc1-c1ccccc1 [Compound 10b, 5-Ethoxycarbonyl-6-methyl-4-phenyl-2-[(7-chloroquinolin-4-ylamino)propylamino]pyrimidine]	0.8 µM	
CCOC(=O)c1c(C)nc(NCCCCNc2ccnc3cc(Cl)ccc23)nc1-c1ccccc1 [Compound 10c, 5-Ethoxycarbonyl-6-methyl-4-phenyl-2-[(7-chloroquinolin-4-ylamino)butylamino]pyrimidine]	0.8 µM	
CCOC(=O)c1c(C)nc(Nc2ccccc2Nc2ccnc3cc(Cl)ccc23)nc1-c1ccccc1 [Compound 10h, 5-Ethoxycarbonyl-6-methyl-4-phenyl-2-[2-(7-chloroquinolin-4-ylamino)phenylamino] pyrimidine]		change in heme absorbance at 402 nm on titration [4]: no change in the absorbance at 402 nm
CCOC(=O)c1c(C)nc(Nc2ccc(Nc3ccnc4cc(Cl)ccc34)cc2)nc1-c1ccccc1 [Compound 10i, 5-Ethoxycarbonyl-6-methyl-4-phenyl-2-[4-(7-chloroquinolin-4-ylamino)phenylamino] pyrimidine]		change in heme absorbance at 402 nm on titration [4]: marked gradual decrease in absorbance at 402 nm
CCOC(=O)c1c(C)nc(NCCCNc2ccnc3cc(Cl)ccc23)nc1C [Compound 10l, 5-Ethoxycarbonyl-6-methyl-4-methyl-2-[(7-chloroquinolin-4-ylamino)propylamino]pyrimidine]	20 µM	
CCOC(=O)c1c(C)nc(NCCCCNc2ccnc3cc(Cl)ccc23)nc1C [Compound 10m, 5-Ethoxycarbonyl-6-methyl-4-methyl-2-[(7-chloroquinolin-4-ylamino)butylamino]pyrimidine]	4 µM	
Cc1nc(NCCCNc2ccnc3cc(Cl)ccc23)nc(-c2cccc([N+](=O)[O-])c2)c1C(=O)OC(C)C [Compound 10n, 5-Isopropyloxycarbonyl-6-methyl-4-(3-nitrophenyl)-2-[(7-chloroquinolin-4-ylamino)propylamino]pyrimidine]	0.8 µM	
Cc1nc(NCCNc2ccnc3cc(Cl)ccc23)nc(-c2ccccc2[N+](=O)[O-])c1C(=O)OC(C)C [Compound 10p, 5-Isopropyloxycarbonyl-6-methyl-4-(2-nitrophenyl)-2-[(7-chloroquinolin-4-ylamino)ethylamino] pyrimidine]	≥0.8 µM	
Cc1nc(NCCCCNc2ccnc3cc(Cl)ccc23)nc(-c2ccccc2[N+](=O)[O-])c1C(=O)OC(C)C [Compound 10r, 5-Isopropyloxycarbonyl-6-methyl-4-(2-nitrophenyl)-2-[(7-chloroquinolin-4-ylamino)butylamino] pyrimidine]	4.0 µM	binding constant (log K) from fluorescence data, CT DNA (GC rich CT DNA): 4.67
NC(=O)c1ncn([C@@H]2O[C@H](CO)[C@@H](O)[C@H]2O)n1 [Ribavirin, reference compound]	h 50% cytotoxic concentration, as determined by measuring the cell viability with the colorimetric formazan- based MTS assay (reference drugs used: Oseltamivir carboxylate CC50/MIC >100, Ribavirin CC50/MIC >100, Amantadine CC50/MIC >200 and Rimantadine CC50/MIC >200). μM	
CC(N)C12CC3CC(CC(C3)C1)C2 (stereo not drawn) [Rimantadine, reference compound]	h 50% cytotoxic concentration, as determined by measuring the cell viability with the colorimetric formazan- based MTS assay (reference drugs used: Oseltamivir carboxylate CC50/MIC >100, Ribavirin CC50/MIC >100, Amantadine CC50/MIC >200 and Rimantadine CC50/MIC >200). μM	
Oseltamivir carboxylate [reference compound]		CC50 [1]: > 100000 nM; Cytotoxicity MIC [1]: h 50% cytotoxic concentration, as determined by measuring the cell viability with the colorimetric formazan- based MTS assay (reference drugs used: Oseltamivir carboxylate CC50/MIC >100, Ribavirin CC50/MIC >100, Amantadine CC50/MIC >200 and Rimantadine CC50/MIC >200). μM
